Tests used:
c-kit mutant D816V = target: T1, c-kit mutant D816V (Homo sapiens, UniProt P10721, D816V/DEL694-753); test: c-Kit mutant D816V biochemical assay, AlphaScreen; settings: c-kit D816V biochemical inhibitory activity; read-out: Biochemical activity (IC50 μM) Kit D816V
T1 construct: residues 551-934, kinase insertion domain residues 694-753 deleted; 6x-histidine (N); made in house; host or cells: E. coli Arctic Express (DE3) RIL (Stratagene)
Procedure, shortened: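 Eight-point, threefold compound series incubated 30 min at room temperature with E. coli-produced D816V kinase, 10 μM ATP, Mg2+/Mn2+ HEPES buffer pH 7.2 and 5% DMSO. After EDTA stop, streptavidin and anti-phosphotyrosine (PY20) AlphaScreen beads gave the read-out, and IC50 was fitted from the concentration–signal curve.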

c-kit kinase = target: T2, c-kit kinase (Homo sapiens, UniProt P10721); test: c-Kit biochemical assay, AlphaScreen, 10 μM ATP; settings: c-kit biochemical inhibitory activity; read-out: Biochemical activity (IC50 μM) Kit
T2 construct: The c-kit (or kinase domain thereof) is an active kinase in AlphaScreen; poly-Histidine tag (in-house protein only) (cleaved yes); host or cells: E. coli BL21(DE3)RIL, co-expressed with PTP1B
Procedure, shortened: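 His-tagged c-Kit expressed in E. coli with co-expressed PTP1B (dephosphorylated), tag removed; 0.1 ng per reaction with biotinylated-peptide substrate in 50 mM HEPES pH 7.2, 5 mM MgCl2, 5 mM MnCl2, 5% DMSO, 10 μM ATP, 1 h at room temperature. Phosphorylation detected by AlphaScreen (streptavidin donor, PY20 acceptor beads); IC50 from 8-point 1:3 dilution series.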

T2 sequence (P10721 26-976): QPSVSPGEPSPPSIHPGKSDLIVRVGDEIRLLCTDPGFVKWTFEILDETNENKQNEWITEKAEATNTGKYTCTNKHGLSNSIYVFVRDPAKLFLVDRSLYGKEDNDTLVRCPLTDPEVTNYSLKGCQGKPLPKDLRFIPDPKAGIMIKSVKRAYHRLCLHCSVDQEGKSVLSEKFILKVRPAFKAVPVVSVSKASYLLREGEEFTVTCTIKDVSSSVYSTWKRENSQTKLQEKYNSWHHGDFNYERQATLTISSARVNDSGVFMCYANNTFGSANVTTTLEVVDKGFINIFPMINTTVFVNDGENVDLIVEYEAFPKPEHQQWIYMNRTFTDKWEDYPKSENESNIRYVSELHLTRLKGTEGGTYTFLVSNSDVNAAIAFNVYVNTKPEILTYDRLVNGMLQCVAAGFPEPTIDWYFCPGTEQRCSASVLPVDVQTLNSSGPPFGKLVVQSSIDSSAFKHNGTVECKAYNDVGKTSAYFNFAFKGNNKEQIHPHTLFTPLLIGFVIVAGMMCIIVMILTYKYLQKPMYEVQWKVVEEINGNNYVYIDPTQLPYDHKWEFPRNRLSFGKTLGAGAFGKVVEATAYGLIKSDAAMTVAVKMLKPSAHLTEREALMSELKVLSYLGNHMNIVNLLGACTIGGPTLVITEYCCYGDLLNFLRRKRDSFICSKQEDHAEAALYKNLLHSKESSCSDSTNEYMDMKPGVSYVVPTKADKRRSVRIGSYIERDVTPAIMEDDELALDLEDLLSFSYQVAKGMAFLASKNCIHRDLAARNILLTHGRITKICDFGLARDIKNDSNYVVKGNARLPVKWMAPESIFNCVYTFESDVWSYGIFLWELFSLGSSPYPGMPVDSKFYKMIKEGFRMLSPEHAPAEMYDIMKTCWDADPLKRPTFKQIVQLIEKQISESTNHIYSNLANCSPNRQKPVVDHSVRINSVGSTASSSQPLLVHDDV
T1 sequence (P10721 with tags, fused parts or gaps DEL694-753/D816V): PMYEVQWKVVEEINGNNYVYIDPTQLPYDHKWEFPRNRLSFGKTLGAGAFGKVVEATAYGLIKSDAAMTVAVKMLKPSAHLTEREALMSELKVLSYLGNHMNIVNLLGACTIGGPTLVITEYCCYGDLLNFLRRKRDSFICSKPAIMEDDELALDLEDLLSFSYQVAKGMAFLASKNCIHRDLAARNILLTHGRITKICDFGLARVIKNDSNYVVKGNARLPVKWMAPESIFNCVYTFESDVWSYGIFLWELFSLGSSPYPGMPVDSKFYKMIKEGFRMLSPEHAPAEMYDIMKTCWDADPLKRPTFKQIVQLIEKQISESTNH

Row | SMILES | IC50 (c-kit mutant D816V) | IC50 (c-kit kinase)
1 | CNS(=O)(=O)c1cccc(-c2ncnc3[nH]c(C)cc23)c1 [P-0319, N-methyl-3-(6-methyl-7H-pyrrolo[2,3-d]pyrimidin-4-yl)benzenesulfonamide] | 10 to 200 µM | 10 to 200 µM
2 | Cc1cc2c(-c3cccc(NS(C)(=O)=O)c3)ncnc2[nH]1 [P-0320, N-[3-(6-methyl-7H-pyrrolo[2,3-d]pyrimidin-4-yl)phenyl]methanesulfonamide] | 10 to 200 µM | 10 to 200 µM
3 | O=S(=O)(Nc1ccc(-c2ncnc3[nH]c(C4=CCCC4)cc23)c(F)c1)c1ccc(F)cc1 [P-0321, N-[4-[6-(cyclopenten-1-yl)-7H-pyrrolo[2,3-d]pyrimidin-4-yl]-3-fluoro-phenyl]-4-fluoro-benzenesulfonamide] | 0.0001 to 1 µM | 0.0001 to 1 µM
4 | Cc1cc2c(-c3ccc(NS(=O)(=O)c4cnn(C(F)F)c4)cc3)ncnc2[nH]1 [P-0322, 1-(difluoromethyl)-N-[4-(6-methyl-7H-pyrrolo[2,3-d]pyrimidin-4-yl)phenyl]pyrazole-4-sulfonamide] | 1 to 10 µM | 10 to 200 µM
5 | Cc1cc2c(-c3ccc(NS(=O)(=O)c4ccc(Cl)s4)cc3)ncnc2[nH]1 [P-0323, 5-chloro-N-[4-(6-methyl-7H-pyrrolo[2,3-d]pyrimidin-4-yl)phenyl]thiophene-2-sulfonamide] | 1 to 10 µM | 1 to 10 µM
6 | COc1ccc(S(=O)(=O)Nc2ccc(-c3ncnc4[nH]c(C)cc34)cc2)cn1 [P-0324, 6-methoxy-N-[4-(6-methyl-7H-pyrrolo[2,3-d]pyrimidin-4-yl)phenyl]pyridine-3-sulfonamide] | 1 to 10 µM | 1 to 10 µM
7 | COc1ccc(S(=O)(=O)Nc2ccc(-c3ncnc4[nH]c(C)cc34)cc2)cc1F [P-0325, 3-fluoro-4-methoxy-N-[4-(6-methyl-7H-pyrrolo[2,3-d]pyrimidin-4-yl)phenyl]benzenesulfonamide] | 1 to 10 µM | 10 to 200 µM
8 | COc1ccc(S(=O)(=O)Nc2ccc(-c3ncnc4[nH]c(C)cc34)cc2)cc1 [P-0326, 4-methoxy-N-[4-(6-methyl-7H-pyrrolo[2,3-d]pyrimidin-4-yl)phenyl]benzenesulfonamide] | 1 to 10 µM | 1 to 10 µM
9 | O=S(=O)(Nc1ccc(Cl)cc1)c1ccc(-c2ncnc3[nH]c(-c4ccc(F)cc4)cc23)c(F)c1 [P-0327, N-(4-chlorophenyl)-3-fluoro-4-[6-(4-fluorophenyl)-7H-pyrrolo[2,3-d]pyrimidin-4-yl]benzenesulfonamide] | 0.0001 to 1 µM | 10 to 200 µM
10 | O=S(=O)(Nc1ccc(F)cc1)c1ccc(-c2ncnc3[nH]c(-c4ccc(F)cc4)cc23)c(F)c1 [P-0328, 3-fluoro-N-(4-fluorophenyl)-4-[6-(4-fluorophenyl)-7H-pyrrolo[2,3-d]pyrimidin-4-yl]benzenesulfonamide] | 0.0001 to 1 µM | 10 to 200 µM
11 | Cc1cc2c(-c3ccc(NS(=O)(=O)c4ccc(OC(F)F)cc4)cc3)ncnc2[nH]1 [P-0329, 4-(difluoromethoxy)-N-[4-(6-methyl-7H-pyrrolo[2,3-d]pyrimidin-4-yl)phenyl]benzenesulfonamide] | 10 to 200 µM | 10 to 200 µM
12 | Cc1cc2c(-c3ccc(NS(=O)(=O)c4ccc(Cl)cc4)cc3)ncnc2[nH]1 [P-0330, 4-chloro-N-[4-(6-methyl-7H-pyrrolo[2,3-d]pyrimidin-4-yl)phenyl]benzenesulfonamide] | 1 to 10 µM | 1 to 10 µM
13 | Cc1cc2c(-c3ccc(NS(=O)(=O)c4ccc(F)cc4)cc3)ncnc2[nH]1 [P-0331, 4-fluoro-N-[4-(6-methyl-7H-pyrrolo[2,3-d]pyrimidin-4-yl)phenyl]benzenesulfonamide] | 1 to 10 µM | 1 to 10 µM
14 | CS(=O)(=O)Nc1ccc(-c2ncnc3[nH]c(-c4ccc(F)cc4F)cc23)c(F)c1 [P-0333, N-[4-[6-(2,4-difluorophenyl)-7H-pyrrolo[2,3-d]pyrimidin-4-yl]-3-fluoro-phenyl]methanesulfonamide] | 0.0001 to 1 µM | 0.0001 to 1 µM
15 | Cc1cc2c(-c3ccc(NS(=O)(=O)c4cc(F)ccc4F)cc3F)ncnc2[nH]1 [P-0335, 2,5-difluoro-N-[3-fluoro-4-(6-methyl-7H-pyrrolo[2,3-d]pyrimidin-4-yl)phenyl]benzenesulfonamide] | 1 to 10 µM | 1 to 10 µM
16 | Cc1cc2c(-c3ccc(S(=O)(=O)Nc4ccc(F)cc4)cc3F)ncnc2[nH]1 [P-0336, 3-fluoro-N-(4-fluorophenyl)-4-(6-methyl-7H-pyrrolo[2,3-d]pyrimidin-4-yl)benzenesulfonamide] | 1 to 10 µM | 10 to 200 µM

Row | SMILES | IC50 (c-kit mutant D816V) | IC50 (c-kit kinase)
17 | O=S(=O)(Nc1ccc(-c2ncnc3[nH]c(-c4cc(F)ccc4F)cc23)c(F)c1)c1ccc(Cl)cc1 [P-0337, 4-chloro-N-[4-[6-(2,5-difluorophenyl)-7H-pyrrolo[2,3-d]pyrimidin-4-yl]-3-fluoro-phenyl]benzenesulfonamide] | 0.0001 to 1 µM | 10 to 200 µM
18 | O=S(=O)(Nc1ccc(-c2ncnc3[nH]c(-c4cc(F)ccc4F)cc23)c(F)c1)C1CC1 [P-0338, N-[4-[6-(2,5-difluorophenyl)-7H-pyrrolo[2,3-d]pyrimidin-4-yl]-3-fluoro-phenyl]cyclopropanesulfonamide] | 1 to 10 µM | 10 to 200 µM
19 | CS(=O)(=O)Nc1ccc(-c2ncnc3[nH]c(-c4cc(F)ccc4F)cc23)c(F)c1 [P-0339, N-[4-[6-(2,5-difluorophenyl)-7H-pyrrolo[2,3-d]pyrimidin-4-yl]-3-fluoro-phenyl]methanesulfonamide] | 0.0001 to 1 µM | 1 to 10 µM
20 | O=S(=O)(Nc1ccc(-c2ncnc3[nH]c(-c4ccc(F)cc4F)cc23)c(F)c1)C1CC1 [P-0340, N-[4-[6-(2,4-difluorophenyl)-7H-pyrrolo[2,3-d]pyrimidin-4-yl]-3-fluoro-phenyl]cyclopropanesulfonamide] | 0.0001 to 1 µM | 10 to 200 µM
21 | Cc1cc2c(-c3ccc(NS(=O)(=O)c4cc(F)cc(F)c4)cc3F)ncnc2[nH]1 [P-0342, 3,5-difluoro-N-[3-fluoro-4-(6-methyl-7H-pyrrolo[2,3-d]pyrimidin-4-yl)phenyl]benzenesulfonamide] | 10 to 200 µM | 10 to 200 µM
22 | Cc1cc2c(-c3ccc(S(=O)(=O)Nc4ccc(F)cc4)c(F)c3)ncnc2[nH]1 [P-0343, 2-fluoro-N-(4-fluorophenyl)-4-(6-methyl-7H-pyrrolo[2,3-d]pyrimidin-4-yl)benzenesulfonamide] | 1 to 10 µM | 10 to 200 µM
23 | Cc1cc2c(-c3ccc(NS(=O)(=O)c4ccc(Cl)cc4)c(F)c3)ncnc2[nH]1 [P-0344, 4-chloro-N-[2-fluoro-4-(6-methyl-7H-pyrrolo[2,3-d]pyrimidin-4-yl)phenyl]benzenesulfonamide] | 1 to 10 µM | 1 to 10 µM
24 | Cc1cc2c(-c3ccc(NS(=O)(=O)c4cccc(Cl)c4)c(F)c3)ncnc2[nH]1 [P-0345, 3-chloro-N-[2-fluoro-4-(6-methyl-7H-pyrrolo[2,3-d]pyrimidin-4-yl)phenyl]benzenesulfonamide] | 1 to 10 µM | 1 to 10 µM
25 | Cc1cc2c(-c3ccc(NS(=O)(=O)c4ccc(F)cc4)c(F)c3)ncnc2[nH]1 [P-0346, 4-fluoro-N-[2-fluoro-4-(6-methyl-7H-pyrrolo[2,3-d]pyrimidin-4-yl)phenyl]benzenesulfonamide] | 1 to 10 µM | 1 to 10 µM
26 | Cc1cc2c(-c3ccc(NS(=O)(=O)c4cccc(F)c4)c(F)c3)ncnc2[nH]1 [P-0347, 3-fluoro-N-[2-fluoro-4-(6-methyl-7H-pyrrolo[2,3-d]pyrimidin-4-yl)phenyl]benzenesulfonamide] | 1 to 10 µM | 1 to 10 µM
27 | Cc1cc2c(-c3ccc(NS(=O)(=O)c4ccc(Cl)cc4)cc3F)ncnc2[nH]1 [P-0349, 4-chloro-N-[3-fluoro-4-(6-methyl-7H-pyrrolo[2,3-d]pyrimidin-4-yl)phenyl]benzenesulfonamide] | 1 to 10 µM | 1 to 10 µM
28 | Cc1cc2c(-c3ccc(NS(=O)(=O)c4ccc(C)c(F)c4)c(F)c3)ncnc2[nH]1 [P-0350, 3-fluoro-N-[2-fluoro-4-(6-methyl-7H-pyrrolo[2,3-d]pyrimidin-4-yl)phenyl]-4-methyl-benzenesulfonamide] | 1 to 10 µM | 1 to 10 µM
29 | Cc1cc2c(-c3ccc(NS(=O)(=O)c4cccc(Cl)c4F)c(F)c3)ncnc2[nH]1 [P-0351, 3-chloro-2-fluoro-N-[2-fluoro-4-(6-methyl-7H-pyrrolo[2,3-d]pyrimidin-4-yl)phenyl]benzenesulfonamide] | 10 to 200 µM | 1 to 10 µM
30 | Cc1cc2c(-c3ccc(NS(=O)(=O)c4ccc(Cl)cc4F)cc3F)ncnc2[nH]1 [P-0352, 4-chloro-2-fluoro-N-[3-fluoro-4-(6-methyl-7H-pyrrolo[2,3-d]pyrimidin-4-yl)phenyl]benzenesulfonamide] | 1 to 10 µM | 0.0001 to 1 µM
31 | CS(=O)(=O)Nc1ccc(-c2ncnc3[nH]c(-c4ccc(F)cc4)cc23)c(F)c1F [P-0353, N-[2,3-difluoro-4-[6-(4-fluorophenyl)-7H-pyrrolo[2,3-d]pyrimidin-4-yl]phenyl]methanesulfonamide] | 0.0001 to 1 µM | 1 to 10 µM
32 | O=S(=O)(NCc1ccc(F)cc1)c1ccc(-c2ncnc3[nH]c(-c4ccc(F)cc4)cc23)c(F)c1 [P-0354, 3-fluoro-N-[(4-fluorophenyl)methyl]-4-[6-(4-fluorophenyl)-7H-pyrrolo[2,3-d]pyrimidin-4-yl]benzenesulfonamide] | 0.0001 to 1 µM | 10 to 200 µM

— patent US10227357B2, “Compounds and methods for kinase modulation, and indications therefor” (Plexxikon Inc., priority 2012, dated 2019)
